In EP0408371B1, “Hemoregulatory peptides” (SMITHKLINE BEECHAM CORPORATION, priority 1989, dated 1994):
Like-named read-outs stand apart in the source and are kept apart here. Square brackets hold non-standard residues; d marks the D form. Ends that are not written are not given here. pGlu = O=C1CC[C@@H](C(=O)O)N1

Tests used:
[1] = test system: human bone marrow stromal cell line, C6; assay: Induction of colony stimulating activity by stromal cells; supernatant tested in soft agar assay (CFU-C); type: cell-based; conditions: 5% Supernatant, Lewis rat bone marrow cells
Experimental: The human bone marrow stromal cell line, C6, is grown to confluency in plastic tissue culture dishes in RPMI-1640 medium and 5% FBS. On the day prior to the experiment this medium is changed to DMEM without added serum. To these cultures, the compounds are added for one hour, then washed from the cultures. The medium is replaced with fresh DMEM and the cells are incubated for 24 hours at 37°C, 5% CO₂. After 24 hours the C6 cell culture supernatant is collected, sterile filtered, and frozen until it can be assayed for the presence of hematopoietic colony stimulating activity (CSA) as set forth below.
Bone marrow cells are obtained from Lewis rats. They are adjusted to 10⁶ cells/ml in DMEM without serum. A single later agar system utilizing the following is used: DMEM enriched with nutrients (NaHCO₃, pyruvate, amino acids, vitamins, and HEPES buffer); 0.3% Bacto agar, and 20% Lewis rat serum. To this are added dilutions of C6 cell line supernatant (10-2.5%) from above along with rat bone marrow cells (final concentration = 10⁵ cells/ml). The agar plates are incubated at 37°C, 5% CO₂ for 7-8 days. Colonies of proliferating bone marrow cells (CFU-C) are counted utilizing a microscope. The number of agar colonies counted is proportional to the amount of CSA present within the C6 bone marrow stromal cell line supernatant.

murine CFU-gm = murine CFU-gm in vitro; cited from earlier work
human CFU-gm = human CFU-gm in vitro; cited from earlier work
[2] = test system: murine myelopoietic cells; conditions: in vivo; cited from earlier work
myelopoietic cells [3] = conditions: in vivo; cited from earlier work
myelopoietic cells [4] = conditions: in vitro; cited from earlier work

Substance: (pGlu-Glu-Asp)₂-Sub-(Lys)₂ [Example 2]
- Hematopoietic Colony Stimulating Activity, Percent of Control ([1]; Dose 0.01 ng/ml): 97% of Control
- Hematopoietic Colony Stimulating Activity, Percent of Control ([1]; Dose 0.1 ng/ml): 154% of Control
- Hematopoietic Colony Stimulating Activity, Percent of Control ([1]; Dose 1 ng/ml): 188% of Control
- Hematopoietic Colony Stimulating Activity, Percent of Control ([1]; Dose 10 ng/ml): 207% of Control
- Hematopoietic Colony Stimulating Activity, Percent of Control ([1]; Dose 100 ng/ml): 241% of Control
- Hematopoietic Colony Stimulating Activity, Percent of Control ([1]; Dose 1000 ng/ml): 192% of Control

Substance: HP-5: oxidation product of pGlu-Glu-Asp-Cys-Lys, a dimer formed by disulfide bridges (EP-A-0267741) ([pGlu]EDCK; also: disulfide-linked dimer (oxidation product))
- colony formation of CFU-gm (murine CFU-gm): strongly stimulates colony formation
- colony formation of CFU-gm (human CFU-gm): strongly stimulates colony formation
- effect on murine myelopoietic cells [2]: up regulates murine myelopoietic cells

Substance: pGlu-Glu-Asp-Cys-Lys ([pGlu]EDCK)
- effect on myelopoietic cells (myelopoietic cells [3]): selective inhibitory effect
- effect on myelopoietic cells (myelopoietic cells [4]): selective inhibitory effect
